Laboratory results as given in patent publication US20230147257A1 (DONG-A ST CO., LTD., priority 2020, published 2023).
Like-named read-outs stand apart in the source and are kept apart here.

What was measured:
AhR [1] = target: T1, AhR (Homo sapiens, UniProt P35869); test: In vitro assay 3: XRE-luciferase reporter assay, agonism in human cell line (HepG2); assay type: cell-based; settings: HepG2 XRE-Luc, tryptophan free medium, test compound alone, 6 hours
T1 construct: host or cells: HepG2
T1 sequence (P35869 11-848): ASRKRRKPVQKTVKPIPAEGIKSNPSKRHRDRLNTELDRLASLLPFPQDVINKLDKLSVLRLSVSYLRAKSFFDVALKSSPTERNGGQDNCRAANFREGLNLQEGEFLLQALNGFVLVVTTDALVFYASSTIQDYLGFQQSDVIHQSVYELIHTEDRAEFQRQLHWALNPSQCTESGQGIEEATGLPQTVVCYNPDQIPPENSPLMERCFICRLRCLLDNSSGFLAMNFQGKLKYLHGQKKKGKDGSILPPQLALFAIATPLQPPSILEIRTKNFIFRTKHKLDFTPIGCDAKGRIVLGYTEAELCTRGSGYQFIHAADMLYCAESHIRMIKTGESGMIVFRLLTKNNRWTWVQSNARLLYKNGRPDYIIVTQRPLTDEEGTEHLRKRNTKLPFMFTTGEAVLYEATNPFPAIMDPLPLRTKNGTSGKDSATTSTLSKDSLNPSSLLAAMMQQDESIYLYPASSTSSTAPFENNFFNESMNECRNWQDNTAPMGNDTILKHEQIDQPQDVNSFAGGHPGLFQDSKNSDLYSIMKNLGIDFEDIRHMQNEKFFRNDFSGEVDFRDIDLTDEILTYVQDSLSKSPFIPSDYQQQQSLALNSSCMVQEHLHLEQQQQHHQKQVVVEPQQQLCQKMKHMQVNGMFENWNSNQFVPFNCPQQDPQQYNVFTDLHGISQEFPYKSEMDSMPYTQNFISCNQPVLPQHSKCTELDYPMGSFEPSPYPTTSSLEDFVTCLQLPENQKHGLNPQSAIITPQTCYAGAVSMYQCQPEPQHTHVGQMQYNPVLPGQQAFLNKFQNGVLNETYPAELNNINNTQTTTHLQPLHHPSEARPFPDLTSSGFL
Source text: (§1) In Vitro XRE-Luciferase Reporter Assay (In Vitro Assay 1, 2, 3)
(§2) AhR activation leads the induction of target gene expression such as CYP1A1 and CYP1B1 by AhR binding to AhR-responsive DNA elements also known as xenobiotics responsive elements (XRE). The assay for measuring AhR activity herein is the luciferase assay using cell lines transfected with luciferase reporter plasmid containing XREs at the upstream of the reporter gene. Cells transfected with XRE-luciferase reporter (XRE-Luc) plasmid drive luciferase activity reflecting activation and inhibition of AhR in the cells. In addition to transfection with XRE-reporter vector, cells were co-transfected with Nano-luciferase reporter gene construct (Nano-Luc) containing constitutively active promoter as internal control. Kynurenine (an endogenous AhR agonist) was used to stimulate cells to test antagonistic properties of the compounds. The half-maximal inhibitory concentration (IC50) or half-maximal effective concentration (EC50) value was calculated using nonlinear regression (four parameters) with Prism8.0 software (GraphPad).
In Vitro Assay 3: Agonism in Human Cell Line
HepG2 (human hepatoma cell line) cells co-transfected with XRE-Luc and Nano-Luc plasmids were plated in tryptophan free medium containing 1% of dialyzed fetal bovine serum and incubated overnight at 37° C. in a CO2 incubator. After 24 hours, cells were treated for 6 hours with test compounds or not. Firefly luciferase and Nano-luciferase activity was measured using Nano-glo Luciferase kit (Promega) and relative luciferase activity (Firefly/Nano-Luc) was used to calculate EC50 values. As a positive control, cells were incubated with TCDD. (EC50 Values are grouped as A, B, C and D, whereby A: EC50<0.1 μM; B: 0.1<EC50<1.0 μM; C: 1.0<EC50<10 μM; D: EC50>10 μM)

AhR [2] = target: T1, AhR; test: In vitro assay 1: XRE-luciferase reporter assay, antagonism in human cell line (HepG2); assay type: cell-based; settings: HepG2 XRE-luciferase, 6 hours, read-out: Assay 1: AhR-Luc Human Antagonism (IC50)
Source text: as §1, §2
In Vitro Assay 1: Antagonism in Human Cell Line
HepG2 (human hepatoma cell line) cell line with a XRE-luciferase reporter either transiently or stably (Invivogen) were plated in complete medium and incubated at 37° C. in a CO2 incubator. After 24 hours, cells were treated with kynurenine (50* or 200 μM) alone (negative control) or with test compounds for 6 hours. Luciferase activity was measured with a commercial kit such as the Promega Luciferase kit or other reagents for measuring luciferase activity. Relative luciferase activity (Firefly/Nano-Luc) was used to calculate IC50 values. The relative luciferase activity was further normalized with kynurenine alone group as the maximum control and the vehicle group as the minimum control. (IC50 values are grouped as A, B, C and D, whereby A: IC50<0.01 μM; B: 0.01<IC50<0.1 μM; C: 0.1<IC50<1.0 μM; D: IC50>1.0 μM)

[3] = read-out: Assay 3: AhR-Luc Human Agonism (EC50)
[4] = cells treated with kynurenine 50 μM (*)
[5] = read-out: Assay 3: AhR-Luc Human Agonism (EC50, nM), class in brackets
[6] = cells treated with kynurenine 200 μM (no *)

Row | SMILES | EC50 (AhR [1]; [3]) | IC50 (AhR [2]; [4]) | EC50 (AhR [1]; [5]) | IC50 (AhR [2]; [6])
1 | CCC(CO)n1cnc2c(-c3cnn(C)c3)nc(-c3ccc(Cl)cc3)cc2c1=O (stereo not drawn) [Example 52, 6-(4-chlorophenyl)-3-(1-hydroxybutan-2-yl)-8-(1-methyl-1H-pyrazol-4-yl)pyrido[3,4-d]pyrimidin-4(3H)-one] | 290 nM | < 0.01 µM | – | –
2 | O=c1c2cc(-c3ccc(Cl)cc3)nc(-c3cccnc3)c2ncn1C1CCN(S(=O)(=O)C2CC2)CC1 [Example 95, 6-(4-chlorophenyl)-3-(1-(cyclopropylsulfonyl)piperidin-4-yl)-8-(pyridin-3-yl)pyrido[3,4-d]pyrimidin-4(3H)-one] | > 30000 nM | – | > 10000 nM | < 0.01 µM
3 | CC(O)Cn1cnc2c(-c3cnn(C)c3)nc(-c3ccc(C(F)(F)F)nc3)cc2c1=O (stereo not drawn) [Example 14, 3-(2-hydroxypropyl)-8-(1-methyl-1H-pyrazol-4-yl)-6-(6-(trifluoromethyl)pyridin-3-yl)pyrido[3,4-d]pyrimidin-4(3H)-one] | > 30000 nM | < 0.01 µM | > 10000 nM | –
4 | O=c1c2cc(-c3ccc(Cl)cc3)nc(-c3cccnc3)c2ncn1CC(O)CO (stereo not drawn) [Example 67, 6-(4-chlorophenyl)-3-(2,3-dihydroxypropyl)-8-(pyridin-3-yl)pyrido[3,4-d]pyrimidin-4(3H)-one] | > 30000 nM | – | > 10000 nM | < 0.01 µM
5 | CC(CNS(C)(=O)=O)n1cnc2c(-c3cccnc3)nc(-c3ccc(Cl)cc3)cc2c1=O (stereo not drawn) [Example 89, N-(2-(6-(4-chlorophenyl)-4-oxo-8-(pyridin-3-yl)pyrido[3,4-d]pyrimidin-3(4H)-yl)propyl)methanesulfonamide] | > 30000 nM | – | > 10000 nM | < 0.01 µM
6 | CS(=O)(=O)CCn1cnc2c(-c3cccnc3)nc(-c3ccc(N4CCOCC4)cc3)cc2c1=O [Example 79, 3-(2-(methylsulfonyl)ethyl)-6-(4-morpholinophenyl)-8-(pyridin-3-yl)pyrido[3,4-d]pyrimidin-4(3H)-one] | – | – | – | < 0.01 µM
7 | CC(CNS(C)(=O)=O)n1cnc2c(-c3cccnc3)nc(-c3ccc(N4CCOCC4)cc3)cc2c1=O (stereo not drawn) [Example 91, N-(2-(6-(4-morpholinophenyl)-4-oxo-8-(pyridin-3-yl)pyrido[3,4-d]pyrimidin-3(4H)-yl)propyl)methanesulfonamide] | – | – | – | < 0.01 µM
8 | CC(CN)n1cnc2c(-c3cccnc3)nc(-c3ccc(Cl)cc3)cc2c1=O (stereo not drawn) [Example 87, 3-(1-aminopropan-2-yl)-6-(4-chlorophenyl)-8-(pyridin-3-yl)pyrido[3,4-d]pyrimidin-4(3H)-one] | – | – | – | < 0.01 µM
9 | O=c1c2cc(-c3ccc(Cl)cc3)nc(-c3cccnc3)c2ncn1[C@H]1CC[C@@H](O)C1 [Example 32, 6-(4-chlorophenyl)-3-((1S,3R)-3-hydroxycyclopentyl)-8-(pyridin-3-yl)pyrido[3,4-d]pyrimidin-4(3H)-one] | – | – | – | < 0.01 µM
10 | Cn1cc(-c2nc(-c3ccc(C(F)(F)F)cc3)cc3c(=O)n([C@@H]4CCCC[C@@H]4O)cnc23)cn1 [Example 18, 3-((1R,2S)-2-hydroxycyclohexyl)-8-(1-methyl-1H-pyrazol-4-yl)-6-(4-(trifluoromethyl)phenyl)pyrido[3,4-d]pyrimidin-4(3H)-one] | – | – | – | < 0.01 µM
11 | CC(CN)n1cnc2c(-c3cccnc3)nc(-c3ccc(N4CCOCC4)cc3)cc2c1=O (stereo not drawn) [Example 90, 3-(1-aminopropan-2-yl)-6-(4-morpholinophenyl)-8-(pyridin-3-yl)pyrido[3,4-d]pyrimidin-4(3H)-one] | – | – | – | 0.1 to 1 µM
12 | CC(=O)NCC(C)n1cnc2c(-c3cccnc3)nc(-c3ccc(C(F)(F)F)cc3)cc2c1=O (stereo not drawn) [Example 86, N-(2-(4-oxo-8-(pyridin-3-yl)-6-(4-(trifluoromethyl)phenyl)pyrido[3,4-d]pyrimidin-3(4H)-yl)propyl)acetamide] | – | – | – | 0.01 to 0.1 µM
13 | O=c1c2cc(-c3ccc(Cl)cc3)nc(-c3cccnc3)c2ncn1[C@@H]1CCCC[C@@H]1O [Example 19] | – | – | – | < 0.01 µM

Further lines, results first:

Row | EC50 (AhR [1]; [3]) | IC50 (AhR [2]; [4]) | EC50 (AhR [1]; [5]) | IC50 (AhR [2]; [6]) | SMILES
14 | 4480 nM | < 0.01 µM | – | – | O=c1c2cc(-c3ccc(C(F)(F)F)cc3)nc(-c3cccnc3)c2ncn1[C@H]1CC[C@H](O)CC1 [Example 57, 3-((1r,4r)-4-hydroxycyclohexyl)-8-(pyridin-3-yl)-6-(4-(trifluoromethyl)phenyl)pyrido[3,4-d]pyrimidin-4(3H)-one]
15 | > 30000 nM | < 0.01 µM | > 10000 nM | – | Cn1cc(-c2nc(-c3ccc(C(F)(F)F)cc3)cc3c(=O)n([C@H]4CC[C@H](O)CC4)cnc23)cn1 [Example 8, 3-((1r,4r)-4-hydroxycyclohexyl)-8-(1-methyl-1H-pyrazol-4-yl)-6-(4-(trifluoromethyl)phenyl)pyrido[3,4-d]pyrimidin-4(3H)-one]
16 | 1370 nM | < 0.01 µM | – | – | CCC(CO)n1cnc2c(-c3cccc(F)c3)nc(-c3ccc(Cl)cc3)cc2c1=O (stereo not drawn) [Example 55, 6-(4-chlorophenyl)-8-(3-fluorophenyl)-3-(1-hydroxybutan-2-yl)pyrido[3,4-d]pyrimidin-4(3H)-one]
17 | > 30000 nM | – | > 10000 nM | < 0.01 µM | CS(=O)(=O)CCn1cnc2c(-c3cccnc3)nc(-c3ccc(C(F)(F)F)cc3)cc2c1=O [Example 76, 3-(2-(methylsulfonyl)ethyl)-8-(pyridin-3-yl)-6-(4-(trifluoromethyl)phenyl)pyrido[3,4-d]pyrimidin-4(3H)-one]
18 | > 30000 nM | < 0.01 µM | > 10000 nM | – | CC(CO)n1cnc2c(-c3cccnc3)nc(-c3ccc(C(F)(F)F)cc3)cc2c1=O (stereo not drawn) [Example 44, 3-(1-hydroxypropan-2-yl)-8-(pyridin-3-yl)-6-(4-(trifluoromethyl)phenyl)pyrido[3,4-d]pyrimidin-4(3H)-one]
19 | – | – | – | < 0.01 µM | CC(=O)OC(C)(C)Cn1cnc2c(-c3cccnc3)nc(-c3ccc(C(F)(F)F)cc3)cc2c1=O [Example 37, 2-methyl-1-(4-oxo-8-(pyridin-3-yl)-6-(4-(trifluoromethyl)phenyl)pyrido[3,4-d]pyrimidin-3(4H)-yl)propan-2-yl acetate]
20 | – | – | – | < 0.01 µM | O=c1c2cc(-c3ccc(N4CCOCC4)cc3)nc(-c3cccnc3)c2ncn1C1CCS(=O)(=O)CC1 [Example 78, 3-(1,1-dioxidotetrahydro-2H-thiopyran-4-yl)-6-(4-morpholinophenyl)-8-(pyridin-3-yl)pyrido[3,4-d]pyrimidin-4(3H)-one]
21 | – | – | – | > 1 µM | CC(C)(O)Cn1cnc2c(-c3cccnc3)nc(-c3ccc(C(F)(F)F)cc3)cc2c1=O [Example 39, 3-(2-hydroxy-2-methylpropyl)-8-(pyridin-3-yl)-6-(4-(trifluoromethyl)phenyl)pyrido[3,4-d]pyrimidin-4(3H)-one]
22 | – | – | – | > 1 µM | O=c1c2cc(-c3ccc(Cl)cc3)nc(-c3cccnc3)c2ncn1[C@H]1CCCC[C@H]1O [Example 21]
